Experimental findings from US12103915B2, “TEAD inhibitors and methods of uses thereof” (Insilico Medicine IP Limited, priority 2022, dated 2024) are described below.

One assay has as its target TEAD4 (Homo sapiens, UniProt Q15561). Nature of the assay: Thermal shift assay TEAD4. In kind it is binding. An outline of the steps:
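Protein thermal shift with TEAD4 at 0.1 mg/ml final, Protein Thermal Shift dye, compounds at 10 μM or 1 μM in PBS with 0.1% DMSO final. Melt reactions assembled on ice and run on a qPCR instrument.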

The subject of the next assay is NCI-H226 cells. Nature of the assay: Cell growth assay (CellTiter-Glo). To be noted: Homo sapiens, NCI-H226, 168 h, 7 days treatment, CellTiter-Glo luminescence, read-out: H226 CTG IC50. In kind it is cell-based, human.
The target of another assay is TEAD3 (Homo sapiens, UniProt Q99594). Nature of the assay: Thermal shift assay TEAD3. In kind it is binding. A digest of the protocol:
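TEAD3 protein at 0.1 mg/ml final melted with Protein Thermal Shift dye on a qPCR instrument. Compounds tested at 10 μM and 1 μM in PBS, final DMSO 0.1%.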

The next assay has as its target TEAD1 (Homo sapiens, UniProt P28347). Nature of the assay: Thermal shift assay TEAD1. Format: binding. A digest of the protocol: (§1)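 Compounds tested at 10 μM and 1 μM, 0.1% DMSO final, with TEAD1 at 0.2 mg/ml or TEAD2 at 0.08 mg/ml final. Melting monitored with Protein Thermal Shift dye on a qPCR instrument.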
The target in another assay is TEAD2 (Homo sapiens, UniProt Q15562). Nature of the assay: Thermal shift assay TEAD2. Format: binding. An outline of the steps: as §1
Sequence of TEAD2 (Q15562 whole entry, species assumed): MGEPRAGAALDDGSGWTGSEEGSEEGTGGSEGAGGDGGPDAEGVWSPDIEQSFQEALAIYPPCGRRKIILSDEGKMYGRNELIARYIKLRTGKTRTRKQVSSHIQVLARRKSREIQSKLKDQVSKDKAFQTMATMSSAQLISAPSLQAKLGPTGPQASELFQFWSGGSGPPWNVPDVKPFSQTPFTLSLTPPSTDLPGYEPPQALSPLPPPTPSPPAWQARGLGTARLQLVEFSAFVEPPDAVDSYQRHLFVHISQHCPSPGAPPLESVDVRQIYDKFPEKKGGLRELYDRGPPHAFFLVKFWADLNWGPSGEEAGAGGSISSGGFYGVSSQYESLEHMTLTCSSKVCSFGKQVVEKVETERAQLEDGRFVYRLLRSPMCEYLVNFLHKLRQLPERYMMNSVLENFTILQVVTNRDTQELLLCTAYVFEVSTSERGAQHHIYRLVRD

Sequence of TEAD4 (Q15561 whole entry, species assumed): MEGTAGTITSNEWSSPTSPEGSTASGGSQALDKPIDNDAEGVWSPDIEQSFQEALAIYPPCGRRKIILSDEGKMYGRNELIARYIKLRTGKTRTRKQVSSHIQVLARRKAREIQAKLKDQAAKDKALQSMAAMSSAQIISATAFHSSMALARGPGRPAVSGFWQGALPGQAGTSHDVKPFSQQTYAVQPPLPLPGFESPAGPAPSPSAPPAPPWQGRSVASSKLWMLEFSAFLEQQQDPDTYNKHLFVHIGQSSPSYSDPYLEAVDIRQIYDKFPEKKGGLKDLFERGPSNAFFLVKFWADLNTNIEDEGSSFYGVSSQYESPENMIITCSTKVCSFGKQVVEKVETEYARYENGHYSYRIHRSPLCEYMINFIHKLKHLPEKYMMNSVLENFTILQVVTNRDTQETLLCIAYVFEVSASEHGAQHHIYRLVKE
Sequence of TEAD1 (P28347 whole entry, species assumed): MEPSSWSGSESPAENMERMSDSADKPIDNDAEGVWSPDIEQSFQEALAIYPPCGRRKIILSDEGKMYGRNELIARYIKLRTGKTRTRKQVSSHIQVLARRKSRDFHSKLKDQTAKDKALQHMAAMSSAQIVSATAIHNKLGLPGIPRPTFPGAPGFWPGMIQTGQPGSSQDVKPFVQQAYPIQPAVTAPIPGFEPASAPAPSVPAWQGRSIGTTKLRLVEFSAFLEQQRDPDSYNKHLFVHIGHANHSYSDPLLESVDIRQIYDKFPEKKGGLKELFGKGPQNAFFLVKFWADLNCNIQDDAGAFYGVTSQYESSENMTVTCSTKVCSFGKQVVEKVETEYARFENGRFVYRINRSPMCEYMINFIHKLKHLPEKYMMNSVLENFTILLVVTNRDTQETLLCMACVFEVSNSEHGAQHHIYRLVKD
Sequence of TEAD3 (Q99594 whole entry, species assumed): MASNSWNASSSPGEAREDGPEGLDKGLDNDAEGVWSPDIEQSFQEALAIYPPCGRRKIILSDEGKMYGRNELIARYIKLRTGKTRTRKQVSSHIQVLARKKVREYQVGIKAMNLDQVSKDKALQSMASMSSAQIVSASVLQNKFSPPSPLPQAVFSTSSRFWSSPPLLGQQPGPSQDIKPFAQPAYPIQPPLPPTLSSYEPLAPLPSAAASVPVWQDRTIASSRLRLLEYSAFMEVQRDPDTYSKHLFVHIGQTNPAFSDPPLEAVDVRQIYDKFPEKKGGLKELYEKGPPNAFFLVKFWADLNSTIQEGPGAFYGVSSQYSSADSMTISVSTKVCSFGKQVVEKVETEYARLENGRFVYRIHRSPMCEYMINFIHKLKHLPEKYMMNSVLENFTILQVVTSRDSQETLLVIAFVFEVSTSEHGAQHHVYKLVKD

For `CC(C)NC(=O)[C@H]1C[C@@H]1c1cc(Oc2ccc(C(F)(F)F)cc2)cc2cn(C)nc12` (single isomer, unassigned) [Example 56b], on TEAD4, the “TEAD4 ΔTm” value amounted to 12.5 °C. For the same compound, the IC50 (usually the concentration at which inhibition is half-maximal) with NCI-H226 cells is less than 100 nM. For the same compound, the “TEAD3 ΔTm” value on TEAD3 was 8.1 °C. Besides, on TEAD1, the “TEAD1 ΔTm” value came out at 9.1 °C. Further, the “TEAD2 ΔTm” value at TEAD2 came to 10.0 °C.

Consider `CNS(=O)(=O)CCc1cc(Oc2ccc(C(F)(F)F)cc2)cc2cccnc12` [Example 142], for which the “TEAD4 ΔTm” value on TEAD4 came out at 9.7 °C. For the same compound, the IC50 in the assay on NCI-H226 cells was in the range of 100 to 500 nM. For the same compound, on TEAD3, the “TEAD3 ΔTm” value was determined as 10.2 °C. Further, the “TEAD1 ΔTm” value on TEAD1 worked out at 8.9 °C. Besides, at TEAD2, the “TEAD2 ΔTm” value came to 11.4 °C.

For the compound `CN1Cc2cc(-c3ccc(C(F)(F)F)cc3)cc(C3C[C@H]3C(=O)O)c2C1=O` (mixture of isomers) [Example 15], the “TEAD4 ΔTm” value at TEAD4 is 3.7 °C. Also, the IC50 in the assay with NCI-H226 cells was in the range of 100 to 500 nM. Also, on TEAD3, the “TEAD3 ΔTm” value amounted to 1.2 °C. Further, the “TEAD1 ΔTm” value on TEAD1 was 5 °C. Further, the “TEAD2 ΔTm” value at TEAD2 was 5.1 °C.

As to `CNC(=O)[C@@H]1CC1c1cc(OCc2ccc(C(F)(F)F)cc2)cc2c1cnn2C` (mixture of isomers) [Example 37], on TEAD4, the “TEAD4 ΔTm” value was 0.1 °C. Moreover, the IC50 in the assay with NCI-H226 cells fell in the range of 1000 to 30000 nM. Moreover, the “TEAD3 ΔTm” value on TEAD3 is 0.1 °C. In addition, the “TEAD1 ΔTm” value on TEAD1 was found to be 0.2 °C. Also, the “TEAD2 ΔTm” value on TEAD2 came to 0.9 °C.

For `O=C(O)[C@@H]1CC1c1cc(-c2ccc(C(F)(F)F)cc2)cc2scnc12` (mixture of isomers) [Example 14], the “TEAD4 ΔTm” value on TEAD4 stood at 0.2 °C. The IC50 in the assay with NCI-H226 cells fell in the range of 1000 to 30000 nM. Further, the “TEAD3 ΔTm” value at TEAD3 came to 0 °C. Besides, the “TEAD1 ΔTm” value at TEAD1 came to 0.4 °C. Also, the “TEAD2 ΔTm” value on TEAD2 was found to be 0.3 °C.

Take `Cn1cc2cc(Oc3ccc(C(F)(F)F)cc3)cc([C@@H]3C[C@H]3C(=O)N3CCO[C@@H](CO)C3)c2n1` (single isomer, unassigned) [Example 62]: the “TEAD4 ΔTm” value on TEAD4 came to 7.7 °C. In addition, the IC50 in the assay on NCI-H226 cells is less than 100 nM. Moreover, the “TEAD3 ΔTm” value at TEAD3 is 1.2 °C. In addition, on TEAD1, the “TEAD1 ΔTm” value came out at 7.4 °C. Further, the “TEAD2 ΔTm” value at TEAD2 is 10.6 °C.

`Cn1ncc2c(C3C[C@H]3C(=O)O)cc(OCc3ccc(C(F)(F)F)cc3)cc21` (mixture of isomers) [Example 19]: the “TEAD4 ΔTm” value at TEAD4 came out at 1.8 °C. Moreover, the 50% inhibitory concentration (IC50) in the assay on NCI-H226 cells fell in the range of 1000 to 30000 nM. In addition, the “TEAD3 ΔTm” value at TEAD3 was determined as 0.9 °C. Further, on TEAD1, the “TEAD1 ΔTm” value was found to be 1.9 °C. Also, the “TEAD2 ΔTm” value on TEAD2 was 3.4 °C.

Turning to `CNS(=O)(=O)/C=C/c1cc(-c2ccc(C(F)(F)F)cc2)cc2c1cnn2C` [Example 41], the “TEAD4 ΔTm” value at TEAD4 worked out at 1.4 °C. In addition, the IC50 in the assay on NCI-H226 cells is less than 100 nM. Moreover, on TEAD3, the “TEAD3 ΔTm” value turned out to be 0.7 °C. The “TEAD1 ΔTm” value at TEAD1 is 2.1 °C. For the same compound, on TEAD2, the “TEAD2 ΔTm” value was 1.2 °C.

As to `CNS(=O)(=O)[C@@H]1CC1c1cc(Oc2ccc(C(F)(F)F)cc2)cc2cccnc12` (mixture of isomers) [Example 81], on TEAD4, the “TEAD4 ΔTm” value stood at 8.2 °C. The concentration for half-maximal inhibition (IC50) with NCI-H226 cells is 500 to 1000 nM. In addition, at TEAD3, the “TEAD3 ΔTm” value is 8.9 °C. In addition, the “TEAD1 ΔTm” value at TEAD1 was 5.5 °C. In addition, the “TEAD2 ΔTm” value at TEAD2 was 9.6 °C.

With `CNC(=O)[C@@H]1C[C@H]1c1cc(-c2ccc(C(F)(F)F)cc2)cc2c1cnn2C(F)F` (racemic) [Example 32], on TEAD4, the “TEAD4 ΔTm” value worked out at 1.3 °C. Besides, the IC50 in the assay on NCI-H226 cells was in the range of 100 to 500 nM. Also, on TEAD3, the “TEAD3 ΔTm” value is 0.2 °C. Besides, the “TEAD1 ΔTm” value at TEAD1 turned out to be 2.1 °C. The “TEAD2 ΔTm” value on TEAD2 was determined as 0.9 °C.

Turning to `CNC(=O)[C@@H]1C[C@H]1c1cc(Oc2ccc(C(F)(F)F)cc2)cc2cn(C)nc12` (single isomer, unassigned) [Example 34a], the “TEAD4 ΔTm” value on TEAD4 is 5.2 °C. In addition, in the assay on NCI-H226 cells, the IC50 was 100 to 500 nM. The “TEAD3 ΔTm” value at TEAD3 came to 1.4 °C. Also, at TEAD1, the “TEAD1 ΔTm” value amounted to 5.2 °C. Further, the “TEAD2 ΔTm” value on TEAD2 came out at 10.2 °C.

Regarding `Cn1cc2cc(Oc3ccc(C(F)(F)F)c(F)c3)cc([C@@H]3C[C@H]3C(=O)N3CC(O)C3)c2n1` (single isomer, unassigned) [Example 132], the “TEAD4 ΔTm” value on TEAD4 is 13.7 °C. The IC50 in the assay on NCI-H226 cells is less than 100 nM. Further, the “TEAD3 ΔTm” value at TEAD3 is 13.9 °C. At TEAD1, the “TEAD1 ΔTm” value came out at 10.9 °C. Moreover, the “TEAD2 ΔTm” value at TEAD2 came out at 15.8 °C.

`Cn1cc2cc(Oc3ccc(C(F)(F)F)cc3)cc([C@@H]3C[C@H]3C(=O)N3CC4CC(C3)N4)c2n1` (single isomer, unassigned) [Example 123]: at TEAD4, the “TEAD4 ΔTm” value is 9.2 °C. In addition, the 50% inhibitory concentration (IC50) with NCI-H226 cells is less than 100 nM. For the same compound, the “TEAD3 ΔTm” value on TEAD3 is 1.8 °C. Besides, the “TEAD1 ΔTm” value at TEAD1 turned out to be 7.7 °C. On TEAD2, the “TEAD2 ΔTm” value worked out at 9.1 °C.

Consider `CNC(=O)[C@@H]1CC1c1cc(-c2ccc(C(F)(F)F)cc2)cc2c1cnn2C` (stereo partly drawn) [Example 40], for which the “TEAD4 ΔTm” value at TEAD4 turned out to be 0.7 °C. Further, the IC50 in the assay on NCI-H226 cells fell in the range of 100 to 500 nM. For the same compound, at TEAD3, the “TEAD3 ΔTm” value stood at 0.2 °C. The “TEAD1 ΔTm” value on TEAD1 turned out to be 1.9 °C. Also, at TEAD2, the “TEAD2 ΔTm” value was determined as 2.7 °C.

For `Cn1cc2cc(Oc3ccc(C(F)(F)F)cc3)cc(C3C[C@H]3C(=O)NC3CC4(CC(O)C4)C3)c2n1` (single isomer, unassigned) [Example 95], the “TEAD4 ΔTm” value on TEAD4 was 9.4 °C. The IC50 with NCI-H226 cells was less than 100 nM. Also, the “TEAD3 ΔTm” value on TEAD3 came to 6.4 °C. The “TEAD1 ΔTm” value on TEAD1 is 9.4 °C. The “TEAD2 ΔTm” value at TEAD2 came to 10.6 °C.

Regarding `Cn1cc2cc(Oc3ccc(C(F)(F)F)cc3)cc([C@@H]3C[C@H]3C(=O)NCC#N)c2n1` (single isomer, unassigned) [Example 66], at TEAD4, the “TEAD4 ΔTm” value came out at 11.7 °C. Besides, in the assay on NCI-H226 cells, the IC50 is less than 100 nM. On TEAD3, the “TEAD3 ΔTm” value amounted to 10.6 °C. Moreover, the “TEAD1 ΔTm” value on TEAD1 was found to be 11.1 °C. For the same compound, on TEAD2, the “TEAD2 ΔTm” value was found to be 14.7 °C.

`Cn1cc2cc(N3CCC4(CCCC4)CC3)cc(C3C[C@H]3C(=O)N3C[C@H](O)[C@@H](O)C3)c2n1` (single isomer, unassigned) [Example 86]: the “TEAD4 ΔTm” value at TEAD4 turned out to be 2.6 °C. The 50% inhibitory concentration (IC50) with NCI-H226 cells was in the range of 1000 to 30000 nM. The “TEAD3 ΔTm” value on TEAD3 was found to be 0.2 °C. Also, at TEAD1, the “TEAD1 ΔTm” value was determined as 2.6 °C. For the same compound, the “TEAD2 ΔTm” value at TEAD2 is 2.7 °C.

As to `O=C(O)[C@@H]1CC1c1cn(-c2ccc(C(F)(F)F)cc2)c2cccnc12` (mixture of isomers) [Example 20], the “TEAD4 ΔTm” value at TEAD4 is 5.9 °C. In the assay with NCI-H226 cells, the IC50 lay in the range of 100 to 500 nM. The “TEAD3 ΔTm” value at TEAD3 was 3.2 °C. The “TEAD1 ΔTm” value on TEAD1 turned out to be 3.8 °C. Further, on TEAD2, the “TEAD2 ΔTm” value was found to be 6.8 °C.

For the compound `Cn1cc2cc(Oc3ccc(C(F)(F)F)cc3)cc(C3C[C@H]3C(=O)N3CC4(CC(O)C4)C3)c2n1` (single isomer, unassigned) [Example 97], the “TEAD4 ΔTm” value at TEAD4 is 10.2 °C. Also, the concentration for half-maximal inhibition (IC50) in the assay with NCI-H226 cells is less than 100 nM. For the same compound, the “TEAD3 ΔTm” value at TEAD3 turned out to be 7.6 °C. The “TEAD1 ΔTm” value on TEAD1 stood at 9.9 °C. Besides, the “TEAD2 ΔTm” value on TEAD2 was determined as 9.0 °C.

`Cn1cc2cc(OC3CC4(C3)CC(F)(F)C4)cc(C3C[C@H]3C(=O)O)c2n1` (mixture of isomers) [Example 93]: at TEAD4, the “TEAD4 ΔTm” value is 6.4 °C. The IC50 in the assay on NCI-H226 cells is 100 to 500 nM. In addition, the “TEAD3 ΔTm” value on TEAD3 came to 1.3 °C. Moreover, the “TEAD1 ΔTm” value on TEAD1 is 6.7 °C. Besides, the “TEAD2 ΔTm” value on TEAD2 was determined as 9.3 °C.

Take `CNC(=O)[C@@H]1CC1c1cc(-c2ccc(C(F)(F)F)cc2)cc2cccnc12` (mixture of isomers) [Example 38]: the “TEAD4 ΔTm” value on TEAD4 came to 0.2 °C. Further, the IC50 with NCI-H226 cells fell in the range of 100 to 500 nM. On TEAD3, the “TEAD3 ΔTm” value came to 0.5 °C. The “TEAD1 ΔTm” value at TEAD1 worked out at 1.1 °C. Moreover, at TEAD2, the “TEAD2 ΔTm” value is 0.8 °C.
